Assay results: PubChem BioAssay (NCI)
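Each compound was tested at five concentrations against cells in 96-well plates for 48 hours. GI50 is the concentration that inhibits growth by half. TGI denotes the concentration required for complete inhibition of growth.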

Experiments:
Test in all cases: growth of human tumour cells (NCI), 48 h
SN12C renal = test system: SN12C renal
SF-539 CNS = test system: SF-539 CNS
OVCAR-3 ovarian = test system: OVCAR-3 ovarian
NCI/ADR-RES ovarian = test system: NCI/ADR-RES ovarian
RPMI-8226 leukemia = test system: RPMI-8226 leukemia
HCT-116 colon = test system: HCT-116 colon
EKVX NSCLC = test system: EKVX NSCLC
SR leukemia = test system: SR leukemia
UACC-62 melanoma = test system: UACC-62 melanoma
OVCAR-4 ovarian = test system: OVCAR-4 ovarian
SK-MEL-28 melanoma = test system: SK-MEL-28 melanoma
NCI-H23 lung = test system: NCI-H23 lung
TK-10 renal = test system: TK-10 renal
SNB-75 CNS = test system: SNB-75 CNS
OVCAR-5 ovarian = test system: OVCAR-5 ovarian
MDA-MB-468 breast = test system: MDA-MB-468 breast
HL-60(TB) leukemia = test system: HL-60(TB) leukemia
SK-MEL-5 melanoma = test system: SK-MEL-5 melanoma
RXF 393 renal = test system: RXF 393 renal
DU-145 prostate = test system: DU-145 prostate
A498 renal = test system: A498 renal
MALME-3M melanoma = test system: MALME-3M melanoma
SK-OV-3 ovarian = test system: SK-OV-3 ovarian
PC-3 prostate = test system: PC-3 prostate
UO-31 renal = test system: UO-31 renal
UACC-257 melanoma = test system: UACC-257 melanoma
COLO 205 colon = test system: COLO 205 colon
SNB-19 CNS = test system: SNB-19 CNS
HT29 colon = test system: HT29 colon
LOX IMVI melanoma = test system: LOX IMVI melanoma
K-562 leukemia = test system: K-562 leukemia
IGROV1 ovarian = test system: IGROV1 ovarian
A549 NSCLC = test system: A549 NSCLC
MDA-MB-231 breast = test system: MDA-MB-231 breast
M14 melanoma = test system: M14 melanoma
T-47D breast = test system: T-47D breast
KM12 colon = test system: KM12 colon
CCRF-CEM leukemia = test system: CCRF-CEM leukemia
HOP-62 NSCLC = test system: HOP-62 NSCLC
786-0 renal = test system: 786-0 renal
SF-268 CNS = test system: SF-268 CNS
SK-MEL-2 melanoma = test system: SK-MEL-2 melanoma
MOLT-4 leukemia = test system: MOLT-4 leukemia
NCI-H522 lung = test system: NCI-H522 lung
SW-620 colon = test system: SW-620 colon
SF-295 CNS = test system: SF-295 CNS
BT-549 breast = test system: BT-549 breast
HCT-15 colon = test system: HCT-15 colon
CAKI-1 renal = test system: CAKI-1 renal
MCF7 breast = test system: MCF7 breast
NCI-H226 lung = test system: NCI-H226 lung
HOP-92 NSCLC = test system: HOP-92 NSCLC
ACHN renal = test system: ACHN renal
MDA-MB-435 = test system: MDA-MB-435
OVCAR-8 ovarian = test system: OVCAR-8 ovarian
NCI-H460 lung = test system: NCI-H460 lung
HS 578T breast = test system: HS 578T breast
HCC-2998 colon = test system: HCC-2998 colon
U251 CNS = test system: U251 CNS

## COC(=O)CNC(=O)COc1c(OC)c(OC)cc2oc(-c3cccc(C(=O)Nc4ccc(Cl)cc4)c3)cc(=O)c12
SN12C renal
  GI50: 4.28 µM
  TGI: 17 µM
SF-539 CNS
  GI50: 8.6 µM
  TGI: 20.9 µM
OVCAR-3 ovarian
  GI50: 12.4 µM
  TGI: 37.5 µM
NCI/ADR-RES ovarian
  GI50: 9.62 µM
  TGI: 73.4 µM
RPMI-8226 leukemia
  GI50: 6.51 µM
  TGI: > 100 µM
HCT-116 colon
  GI50: 13.9 µM
  TGI: 48.5 µM
EKVX NSCLC
  GI50: 12.4 µM
  TGI: 30.1 µM
SR leukemia
  GI50: 9.98 µM
  TGI: > 100 µM
UACC-62 melanoma
  GI50: 6.1 µM
  TGI: 19.4 µM
OVCAR-4 ovarian
  GI50: 2.95 µM
  TGI: 10.8 µM
SK-MEL-28 melanoma
  GI50: 5.9 µM
  TGI: 18.9 µM
NCI-H23 lung
  GI50: 7.19 µM
  TGI: 20 µM
TK-10 renal
  GI50: 16.1 µM
  TGI: 34.6 µM
SNB-75 CNS
  GI50: 11.9 µM
  TGI: 37.4 µM
OVCAR-5 ovarian
  GI50: 7.2 µM
  TGI: 40.1 µM
MDA-MB-468 breast
  GI50: 27.2 µM
  TGI: > 100 µM
HL-60(TB) leukemia
  GI50: 13.3 µM
  TGI: > 100 µM
SK-MEL-5 melanoma
  GI50: 3.75 µM
  TGI: 14.7 µM
RXF 393 renal
  GI50: 3.54 µM
  TGI: 14.9 µM
DU-145 prostate
  GI50: 10.6 µM
  TGI: 28.3 µM
A498 renal
  GI50: 16.3 µM
  TGI: 34.5 µM
MALME-3M melanoma
  GI50: 4.75 µM
  TGI: 17.7 µM
SK-OV-3 ovarian
  GI50: 11.1 µM
  TGI: 23.6 µM
PC-3 prostate
  GI50: 10.3 µM
  TGI: 33.7 µM
UO-31 renal
  GI50: 13.8 µM
  TGI: 26.7 µM
UACC-257 melanoma
  GI50: 7.35 µM
  TGI: 24.9 µM
COLO 205 colon
  GI50: 4.19 µM
  TGI: 17.8 µM
SNB-19 CNS
  GI50: 10.6 µM
  TGI: 22.4 µM
HT29 colon
  GI50: 6.79 µM
  TGI: > 100 µM
LOX IMVI melanoma
  GI50: 5.02 µM
  TGI: 19.5 µM
K-562 leukemia
  GI50: 25.6 µM
  TGI: > 100 µM
IGROV1 ovarian
  GI50: 11.4 µM
  TGI: 24.8 µM
A549 NSCLC
  GI50: 7.25 µM
  TGI: 20.6 µM
MDA-MB-231 breast
  GI50: 3.57 µM
  TGI: 13 µM
M14 melanoma
  GI50: 7.98 µM
  TGI: 25 µM
T-47D breast
  GI50: 8.16 µM
  TGI: 31.1 µM
KM12 colon
  GI50: 27.5 µM
  TGI: > 100 µM
CCRF-CEM leukemia
  GI50: > 100 µM
  TGI: > 100 µM
HOP-62 NSCLC
  GI50: 3.56 µM
  TGI: 11.5 µM
786-0 renal
  GI50: 5.19 µM
  TGI: 17.2 µM
SF-268 CNS
  GI50: 15.1 µM
  TGI: 42.9 µM
SK-MEL-2 melanoma
  GI50: 10.1 µM
  TGI: 25 µM
MOLT-4 leukemia
  GI50: > 100 µM
  TGI: > 100 µM
NCI-H522 lung
  GI50: 7.22 µM
  TGI: 20.1 µM
SW-620 colon
  GI50: 14 µM
  TGI: 69.7 µM
SF-295 CNS
  GI50: 13.9 µM
  TGI: 26.9 µM
BT-549 breast
  GI50: 3.05 µM
  TGI: 12.3 µM
HCT-15 colon
  GI50: 14.8 µM
  TGI: > 100 µM
CAKI-1 renal
  GI50: 18.9 µM
  TGI: 41.6 µM
MCF7 breast
  GI50: 6.05 µM
  TGI: 23.9 µM
NCI-H226 lung
  GI50: 4.01 µM
  TGI: 27.6 µM
HOP-92 NSCLC
  GI50: 4.04 µM
  TGI: 25.9 µM
ACHN renal
  GI50: 5.84 µM
  TGI: 18.7 µM
MDA-MB-435
  GI50: 6.57 µM
  TGI: 21.9 µM
OVCAR-8 ovarian
  GI50: 3.64 µM
  TGI: 11.8 µM
NCI-H460 lung
  GI50: 4.03 µM
  TGI: 15.1 µM
HS 578T breast
  GI50: 4.28 µM
  TGI: 28.5 µM
HCC-2998 colon
  GI50: 15.4 µM
  TGI: 70.8 µM
U251 CNS
  GI50: 4.82 µM
  TGI: 16.5 µM

## CC1=C(c2cc(-c3ccc(Cl)cc3)c(C#N)c(N)n2)C(c2ccccc2)NC(=S)N1 (stereo not given)
SN12C renal
  GI50: 5.86 µM
  TGI: 21.6 µM
SF-539 CNS
  GI50: 10.1 µM
  TGI: 23 µM
OVCAR-3 ovarian
  GI50: 13.8 µM
  TGI: 47.4 µM
NCI/ADR-RES ovarian
  GI50: 0.671 µM
  TGI: 26.2 µM
RPMI-8226 leukemia
  GI50: 0.692 µM
  TGI: 34.1 µM
HCT-116 colon
  GI50: 0.147 µM
  TGI: 17.6 µM
EKVX NSCLC
  GI50: 16.4 µM
  TGI: 42.6 µM
SR leukemia
  GI50: 0.0842 µM
  TGI: > 48.7 µM
UACC-62 melanoma
  GI50: 13.1 µM
  TGI: 26.9 µM
OVCAR-4 ovarian
  GI50: 28 µM
  TGI: > 100 µM
SK-MEL-28 melanoma
  GI50: 14.9 µM
  TGI: 30 µM
NCI-H23 lung
  GI50: 13.6 µM
  TGI: 29.6 µM
TK-10 renal
  GI50: 23.1 µM
  TGI: 61 µM
SNB-75 CNS
  GI50: 7.01 µM
  TGI: 47 µM
OVCAR-5 ovarian
  GI50: 17.8 µM
  TGI: 35.5 µM
MDA-MB-468 breast
  GI50: 8.45 µM
  TGI: 22.7 µM
HL-60(TB) leukemia
  GI50: 0.168 µM
SK-MEL-5 melanoma
  GI50: 6.62 µM
  TGI: 20.1 µM
RXF 393 renal
  GI50: 11.6 µM
  TGI: 24.3 µM
DU-145 prostate
  GI50: 13.1 µM
  TGI: 29.3 µM
A498 renal
  GI50: > 44.5 µM
  TGI: > 62.8 µM
MALME-3M melanoma
  GI50: 14 µM
  TGI: 32.1 µM
SK-OV-3 ovarian
  GI50: 23.7 µM
  TGI: 67.9 µM
PC-3 prostate
  GI50: 11 µM
  TGI: 53.1 µM
UO-31 renal
  GI50: 13.3 µM
  TGI: 26.3 µM
UACC-257 melanoma
  GI50: 16.1 µM
  TGI: 38.8 µM
COLO 205 colon
  GI50: 17 µM
  TGI: 33.5 µM
SNB-19 CNS
  GI50: 16.7 µM
  TGI: 53.8 µM
HT29 colon
  GI50: 12.2 µM
  TGI: 27.6 µM
LOX IMVI melanoma
  GI50: 1.34 µM
  TGI: 14.4 µM
K-562 leukemia
  GI50: 0.277 µM
  TGI: > 100 µM
IGROV1 ovarian
  GI50: 17.2 µM
  TGI: 36.4 µM
A549 NSCLC
  GI50: 48.8 µM
  TGI: > 88 µM
MDA-MB-231 breast
  GI50: 13.6 µM
  TGI: 29.6 µM
M14 melanoma
  GI50: 3.33 µM
  TGI: 25.4 µM
T-47D breast
  GI50: 11.4 µM
  TGI: 47.5 µM
KM12 colon
  GI50: 16.9 µM
  TGI: 35.5 µM
CCRF-CEM leukemia
  GI50: 0.303 µM
  TGI: 16.9 µM
HOP-62 NSCLC
  GI50: 16 µM
  TGI: 37 µM
786-0 renal
  GI50: 16.3 µM
  TGI: 35.4 µM
SF-268 CNS
  GI50: 17.6 µM
  TGI: 67.2 µM
SK-MEL-2 melanoma
  GI50: 17.5 µM
  TGI: 34.2 µM
MOLT-4 leukemia
  GI50: 1.37 µM
  TGI: > 66.2 µM
NCI-H522 lung
  GI50: 14.7 µM
  TGI: 29.5 µM
SW-620 colon
  GI50: 11 µM
  TGI: 32.5 µM
SF-295 CNS
  GI50: 10.8 µM
  TGI: 24.4 µM
BT-549 breast
  GI50: 14.1 µM
  TGI: 29.5 µM
HCT-15 colon
  GI50: 0.171 µM
  TGI: 18.2 µM
CAKI-1 renal
  GI50: 16.5 µM
  TGI: 43.9 µM
MCF7 breast
  GI50: 0.177 µM
  TGI: 28.5 µM
NCI-H226 lung
  GI50: 15.8 µM
  TGI: 44.6 µM
HOP-92 NSCLC
  GI50: 19.1 µM
  TGI: 62.7 µM
ACHN renal
  GI50: 15.5 µM
  TGI: 30.9 µM
MDA-MB-435
  GI50: 7.44 µM
  TGI: 30.3 µM
OVCAR-8 ovarian
  GI50: 20 µM
  TGI: > 86.4 µM
NCI-H460 lung
  GI50: 20.3 µM
  TGI: 53.8 µM
HS 578T breast
  GI50: 19.1 µM
  TGI: > 96.2 µM
HCC-2998 colon
  GI50: 13.4 µM
  TGI: 26.4 µM
U251 CNS
  GI50: 12.5 µM
  TGI: 28.1 µM
